{
  "source": "patent US20220031813A1",
  "about": "“INHIBITOR OF EXTRACELLULAR TRAP FORMATION IN LEUKOCYTES” (priority 2013, published 2022)",
  "key": {"[1]": {"test_system": "human neutrophils", "experiment": "Rate of NETs formation in PMA-stimulated neutrophils after pre-treatment, counted by confocal microscopy", "assay_type": "cell-based", "details": "pre-treatment 10 μM for 30 minutes, then PMA 25 nM"}, "[2]": {"test_system": "human neutrophils", "experiment": "Specificity experiment: inhibition of NETs formation by DNA concentration in the culture supernatant", "assay_type": "cell-based", "details": "n=3, p<0.01, FIG. 10", "protocol": "About 1 hour after the isolation of the neutrophils described in “1. Method of isolating human neutrophils” in Example 2, the neutrophils were pre-treated. On an 8-well microslide (Cat. No. ib 80826 Ibidi (registered trademark)), the neutrophils were seeded in 400 μl of culture DMEM+2% human serum Alb (serum human albumin; Product No. A9080 Sigma+4 mM L-glutamine) at a rate of about 1.0×10^5 cells/well, and stimulated with PMA (final concentration: 25 nM, stock: 10 mM in DMSO, Sigma Prod No. P8139). At thirty minutes before the stimulation, and at every one hour or every two hours after the stimulation, 200 μg/ml of human lactoferrin (stock: 100 mg/ml, 200 μl; Cat. No. SIGL6793, SIGMA) was added to perform inhibition [FIG. 2].\nThe culture supernatant was recovered and centrifuged at 200×g for 10 minutes, and the supernatant was transferred to a new microscopic centrifuge tube. The DNA amount was measured by use of Picogreen dsDNA assay reagent (P11496 Invitrogen) in accordance with an accompanying protocol. Treatment with human lactoferrin at one hour and two hours after the stimulation was a similar effect to the prior pre-treatment, the DNA concentration in the culture supernatant decreased, resulting in suppression of the release of the DNAs by the NETs [FIG. 2]. […]"}, "[3]": {"details": "bovine proteins; cited from earlier work"}},
  "data": [
    {"compound": "c1ccc2c(c1)[I+]c1ccccc1-2", "note": "[DPI, diphenyleneiodoniumchloride, reference compound]", "values": [
      {"measurement": "formation of the NETs at plateau, compared with stimulation merely with PMA", "setting": "[1]", "value": "⅓"}
    ]},
    {"compound": "lactoperoxidase [reference compound]", "values": [
      {"measurement": "inhibition of the formation of the NETs", "setting": "[2]", "value": "Neither lactoperoxidase nor angiogenin inhibited"},
      {"measurement": "Isoelectric point", "setting": "[3]", "value": 8.0}
    ]}
  ]
}
